Source: PMC11284788, “NN1213 – A Potent, Long-Acting, and Selective Analog of Human Amylin” (Journal of Medicinal Chemistry, 2024)
Read-outs that look alike come from different tables or passages of the source. Numbered stars: 1 amine (or outer) side, 2 acyl side, 3 side chain; on linkers, the order of the positions; unused ones are H or OH. Bridge positions count the residues as written; N and C are the ends. Side chains are listed from the residue outwards. Peptide text beside a SMILES is read from it. * marks the point of attachment. C20 diacid = O=C(O)CCCCCCCCCCCCCCCCCCC(=O)*; γGlu = O=C(O)[C@H](CCC(=O)[*:2])N[*:1]

Legend:
hAMY3R [1] = molecular target: T1, hAMY3R (Homo sapiens, UniProt O60896+P30988); assay: cAMP-responsive element luciferase reporter assay, human AMY3R; format: cell-based; parameters: expressed in transfected cells; conditions: for ratio hCTR/hAMY3R: ratio of luciferase EC50 values; for EC50: luciferase (human receptor assay)
T1 sequence (P30988 25-474): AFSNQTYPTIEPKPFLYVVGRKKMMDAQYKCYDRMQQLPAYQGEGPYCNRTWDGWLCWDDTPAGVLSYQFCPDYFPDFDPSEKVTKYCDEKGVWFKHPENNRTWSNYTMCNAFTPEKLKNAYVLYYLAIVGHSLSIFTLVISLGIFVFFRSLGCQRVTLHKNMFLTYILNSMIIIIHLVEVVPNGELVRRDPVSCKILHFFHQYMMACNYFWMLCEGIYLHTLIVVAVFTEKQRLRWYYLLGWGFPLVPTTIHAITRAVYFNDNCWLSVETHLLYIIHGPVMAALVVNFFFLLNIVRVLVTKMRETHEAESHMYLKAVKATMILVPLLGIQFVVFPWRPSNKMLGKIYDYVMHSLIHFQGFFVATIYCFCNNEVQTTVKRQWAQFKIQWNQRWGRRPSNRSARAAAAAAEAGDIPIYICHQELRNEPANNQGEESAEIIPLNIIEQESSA
T1 sequence (O60896 24-148 partner): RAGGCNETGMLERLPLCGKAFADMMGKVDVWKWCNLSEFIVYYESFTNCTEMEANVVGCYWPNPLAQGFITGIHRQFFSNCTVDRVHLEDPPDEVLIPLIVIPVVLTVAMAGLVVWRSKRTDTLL

rAMY3R = molecular target: T2, rAMY3R (Rattus norvegicus, UniProt P32214+Q9JJ73); assay: scintillation proximity binding assay, rAMY3R membranes; parameters: expressed in transfected cells; host or cells: BHK tk-ts 13, transient co-transfection (FuGENE 6); conditions: for ratio rCTR/rAMY3R: ratio of binding IC50 values
T2 sequence (P32214 25-479 isoform P32214-2 limits assumed): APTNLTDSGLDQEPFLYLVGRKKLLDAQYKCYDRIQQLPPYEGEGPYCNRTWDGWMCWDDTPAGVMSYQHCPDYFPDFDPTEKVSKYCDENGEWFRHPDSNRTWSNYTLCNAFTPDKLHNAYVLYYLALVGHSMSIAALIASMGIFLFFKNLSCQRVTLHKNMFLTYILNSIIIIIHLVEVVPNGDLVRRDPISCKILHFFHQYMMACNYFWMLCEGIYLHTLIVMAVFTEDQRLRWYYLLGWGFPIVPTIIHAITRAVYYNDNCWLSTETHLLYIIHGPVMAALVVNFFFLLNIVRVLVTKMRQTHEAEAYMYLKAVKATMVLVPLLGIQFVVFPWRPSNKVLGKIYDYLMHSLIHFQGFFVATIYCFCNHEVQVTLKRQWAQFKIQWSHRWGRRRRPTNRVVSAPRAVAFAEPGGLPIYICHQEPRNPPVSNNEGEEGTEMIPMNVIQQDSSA
T2 sequence (Q9JJ73 23-147 partner): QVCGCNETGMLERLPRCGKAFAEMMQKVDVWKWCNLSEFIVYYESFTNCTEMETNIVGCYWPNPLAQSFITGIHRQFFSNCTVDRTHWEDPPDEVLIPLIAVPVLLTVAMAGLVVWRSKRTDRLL
Method: (§1) The apparent binding affinities were determined using a scintillation proximity assay with beads from PerkinElmer and cell membranes containing the AMY3R or CTRs. […] Membranes were harvested and membranes were prepared and kept at −80 °C until use. The assay was performed in a 384-well Optiplate (PerkinElmer). Membranes were mixed with scintillation proximity assay beads in a 1:1 ratio. […] Samples were analyzed on a TopCounter (Packard). The IC50 values were calculated using GraphPad Prism. See Supporting Information S7: SAR Screening Assay Methods (Binding Assays (Human and Rat)) for more information.
(§2) Binding Assays (Human and Rat). Brief descriptions of the methods used to determine binding affinities for SAR analysis are described below. Curves and IC50 values were plotted and calculated in GraphPad Prism using nonlinear regression (one site binding competition analysis), with pIC50 values […]
(§3) values were used to calculate the binding affinity ratios in order to express the selectivity of compounds for the AMY3R versus the CTR.
(§4) CTR Binding Assay. The binding assay was performed using scintillation proximity assay (SPA) beads (RPNQ0001) from PerkinElmer and cell membranes containing either the hCTR or rCTR. BHK […]
(§5) Membranes were prepared in the following way: the cells were rinsed with PBS and incubated with Versene for approximately 5 min before harvesting. The cells were flushed with PBS and the cell-suspension was centrifuged for 5 min at 1000 rpm. Cells were homogenized (Ultra Turrax) in a buffer […]
(§6) containing 20 mM Na-HEPES and 0.1 mM EDTA (pH 7.4, buffer 2). The resulting pellet was re-suspended in buffer 2 and protein concentration was measured (BCA protein assay, Pierce). The homogenate was kept cold during the whole procedure. The membranes were stored at –80 °C until […]
(§7) The binding assay was performed in a 384-well Optiplate (PerkinElmer) in a total volume of 40 μL.
(§8) Membranes were mixed with SPA beads in a 1:1 ratio. […]
(§9) mg/well. Test compounds were dissolved in DMSO and further diluted in assay buffer (50 mM HEPES, pH 7.4, 1 mM CaCl2, 5 mM MgCl2, 0.1% ovalbumin, and 0.02% Tween-20).
(§10) Calcitonin (NEX422 PerkinElmer) was dissolved in assay buffer and added to the Optiplate at a final […]
(§11) prior to centrifugation (1500 rpm, 10 min). Samples were analyzed on TopCounter (Packard).
(§12) AMY3R Binding Assay. The binding assay was performed using SPA beads (RPNQ0001) from PerkinElmer and cell membranes containing either the hAMY3R or rAMY3R. BHK tk-ts 13 cells were […]
as §5, with “and cultured as described above. Membranes” for “Membranes”, “buffer containing 20 mM Na-HEPES and 10 mM EDTA (pH 7.4), and” for “buffer”
(§13) The resulting pellet was re-suspended, homogenized, and
(§14) 7.4, buffer 2). The resulting pellet was re-suspended in buffer 2 and protein concentration was measured (BCA protein assay, Pierce). The homogenate was kept cold during the whole procedure.
(§15) The membranes were stored at –80 °C until use.
(§16) Membranes were mixed with SPA beads in a 1:1 ratio. The final concentration of SPA beads was 0.05 mg/well. Test compounds were dissolved in DMSO and further diluted in assay buffer (50 mM […]
(§17) rAMY (NEX448 PerkinElmer) was dissolved in assay buffer and added to the Optiplate at a final

hAMY3R [2] = molecular target: T1, hAMY3R; assay: scintillation proximity binding assay, hAMY3R membranes; parameters: expressed in transfected cells; host or cells: BHK tk-ts 13, transient co-transfection; membranes for the SPA, whole cells for the species-specific assays; conditions: for ratio hCTR/hAMY3R: ratio of binding IC50 values
Method: as §1, §2, §3, §4, §5, §6, §7, §8, §9, §10, §11, §12
as §5, with “and cultured as described above. Membranes” for “Membranes”, “buffer containing 20 mM Na-HEPES and 10 mM EDTA (pH 7.4), and” for “buffer”
as §13, §14, §15, §16, §17

[3] = Tables S12 and S14, read-out: hAMY3R pEC50 (converted)
[4] = BHK cells stably expressing hCTR+RAMP3 and CRE-luciferase, 3 h, 37 °C, 10% FBS, read-out: hAMY3R EC50
[5] = SPA binding assay, Tables S13 and S15, read-out: hAMY3R pIC50 (converted)
[6] = SPA, BHK cell membranes, 125I-rat amylin, 120 min 25 °C, read-out: hAMY3R IC50

Row | ratio rCTR/rAMY3R (rAMY3R) | ratio hCTR/hAMY3R (hAMY3R [2]) | EC50 (hAMY3R [1]; [3]) [nM] | EC50 (hAMY3R [1]; [4]) [nM] | ratio hCTR/hAMY3R (hAMY3R [1]) | IC50 (rAMY3R; SPA binding assay, Tables S13 and S15, read-out: rAMY3R pIC50 (converted)) [nM] | IC50 (rAMY3R; SPA, BHK cell membranes, 125I-rat amylin, 120 min 25 °C, read-out: rAMY3R IC50) [nM] | IC50 (hAMY3R [2]; [5]) [nM] | IC50 (hAMY3R [2]; [6]) [nM] | rAMY3R pIC50 (rAMY3R; SPA binding assay, Tables S13 and S15) | Compound | ratio hCTR/hAMY3R (hAMY3R [1]; listed as 21)
1 | 76 | 14 | 0.316 | 0.319 | 9.4 | 4.68 | 4.69 | 5.13 | 5.09 |  | CC[C@H](C)[C@H](NC(=O)[C@@H]1CCCN1C(=O)CNC(=O)[C@H](Cc1ccccc1)NC(=O)[C@H](CC(N)=O)NC(=O)[C@@H]1CCCN1C(=O)[C@H](CO)NC(=O)[C@H](CO)NC(=O)[C@H](Cc1c[nH]cn1)NC(=O)[C@H](CCCNC(=N)N)NC(=O)[C@H](CC(C)C)NC(=O)[C@H](Cc1ccccc1)NC(=O)[C@H](CC(=O)O)NC(=O)[C@H](C)NC(=O)[C@H](CC(C)C)NC(=O)[C@H](CCCNC(=N)N)NC(=O)[C@H](CCC(N)=O)NC(=O)[C@@H](NC(=O)[C@H](C)NC(=O)[C@@H]1CSSC[C@H](NC(=O)[C@@H](N)CCCCNC(=O)CC[C@H](NC(=O)CC[C@H](NC(=O)CCCCCCCCCCCCCCCCCCC(=O)O)C(=O)O)C(=O)O)C(=O)N[C@@H](CC(N)=O)C(=O)N[C@@H]([C@@H](C)O)C(=O)N[C@@H](C)C(=O)N[C@@H]([C@@H](C)O)C(=O)N1)[C@@H](C)O)C(=O)N[C@@H](CC(C)C)C(=O)N[C@@H](CO)C(=O)N[C@@H](CO)C(=O)N[C@H](C(=O)N[C@@H](CC(N)=O)C(=O)N[C@H](C(=O)NCC(=O)N[C@@H](CO)C(=O)N[C@@H](CC(=O)O)C(=O)N[C@H](C(=O)N[C@@H](Cc1ccc(O)cc1)C(N)=O)[C@@H](C)O)C(C)C)[C@@H](C)O [Peptide 3] (H-K([γGlu-γGlu-C20 diacid])CNTATCATQRLADFLRHSSPNFGPILSSTNVGSDTY-NH2; disulfide 2-7) | 
2 | 81 | 27 | 0.219 | 0.219 | 12 |  |  | 1.12 | 1.12 | 8.89 | CC(C)C[C@H](NC(=O)[C@H](CCCNC(=N)N)NC(=O)[C@H](CCC(N)=O)NC(=O)[C@@H](NC(=O)[C@H](C)NC(=O)[C@@H]1CSSC[C@H](NC(=O)[C@@H](N)CCCCNC(=O)CC[C@H](NC(=O)CC[C@H](NC(=O)CCCCCCCCCCCCCCCCCCC(=O)O)C(=O)O)C(=O)O)C(=O)N[C@@H](CC(N)=O)C(=O)N[C@@H]([C@@H](C)O)C(=O)N[C@@H](C)C(=O)N[C@@H]([C@@H](C)O)C(=O)N1)[C@@H](C)O)C(=O)N[C@@H](C)C(=O)N[C@@H](CC(=O)O)C(=O)N[C@@H](Cc1ccccc1)C(=O)N[C@@H](CC(C)C)C(=O)N[C@@H](CCCNC(=N)N)C(=O)N[C@@H](Cc1c[nH]cn1)C(=O)N[C@@H](CO)C(=O)N[C@@H](CO)C(=O)N1CCC[C@H]1C(=O)N[C@@H](CC(N)=O)C(=O)N[C@@H](Cc1ccccc1)C(=O)NCC(=O)N[C@@H](C)C(=O)N1CCC[C@H]1C(=O)N[C@@H](CC(C)C)C(=O)N[C@@H](CO)C(=O)N[C@@H](CO)C(=O)N[C@H](C(=O)N[C@@H](CC(N)=O)C(=O)N[C@H](C(=O)NCC(=O)N[C@@H](CO)C(=O)N[C@@H](CC(=O)O)C(=O)N[C@H](C(=O)N[C@@H](Cc1ccc(O)cc1)C(N)=O)[C@@H](C)O)C(C)C)[C@@H](C)O [Peptide 5] (H-K([γGlu-γGlu-C20 diacid])CNTATCATQRLADFLRHSSPNFGAPLSSTNVGSDTY-NH2; disulfide 2-7) | 

Row | Compound | ratio rCTR/rAMY3R (rAMY3R) | ratio hCTR/hAMY3R (hAMY3R [2]) | EC50 (hAMY3R [1]; [3]) [nM] | EC50 (hAMY3R [1]; [4]) [nM] | ratio hCTR/hAMY3R (hAMY3R [1]) | IC50 (rAMY3R; SPA binding assay, Tables S13 and S15, read-out: rAMY3R pIC50 (converted)) [nM] | IC50 (rAMY3R; SPA, BHK cell membranes, 125I-rat amylin, 120 min 25 °C, read-out: rAMY3R IC50) [nM] | IC50 (hAMY3R [2]; [5]) [nM] | IC50 (hAMY3R [2]; [6]) [nM] | rAMY3R pIC50 (rAMY3R; SPA binding assay, Tables S13 and S15) | ratio hCTR/hAMY3R (hAMY3R [1]; listed as 21)
3 | CC[C@H](C)[C@H](NC(=O)[C@H](C)NC(=O)CNC(=O)[C@H](Cc1ccccc1)NC(=O)[C@H](CC(N)=O)NC(=O)[C@@H]1CCCN1C(=O)[C@H](CO)NC(=O)[C@H](CO)NC(=O)[C@H](Cc1c[nH]cn1)NC(=O)[C@H](CCCNC(=N)N)NC(=O)[C@H](CC(C)C)NC(=O)[C@H](Cc1ccccc1)NC(=O)[C@H](CC(=O)O)NC(=O)[C@H](C)NC(=O)[C@H](CC(C)C)NC(=O)[C@H](CCCNC(=N)N)NC(=O)[C@H](CCC(N)=O)NC(=O)[C@@H](NC(=O)[C@H](C)NC(=O)[C@@H]1CSSC[C@H](NC(=O)[C@@H](N)CCCCNC(=O)CC[C@H](NC(=O)CC[C@H](NC(=O)CCCCCCCCCCCCCCCCCCC(=O)O)C(=O)O)C(=O)O)C(=O)N[C@@H](CC(N)=O)C(=O)N[C@@H]([C@@H](C)O)C(=O)N[C@@H](C)C(=O)N[C@@H]([C@@H](C)O)C(=O)N1)[C@@H](C)O)C(=O)N1CCC[C@H]1C(=O)N[C@@H](CO)C(=O)N[C@@H](CO)C(=O)N[C@H](C(=O)N[C@@H](CC(N)=O)C(=O)N[C@H](C(=O)NCC(=O)N[C@@H](CO)C(=O)N[C@@H](CCCNC(=N)N)C(=O)N[C@H](C(=O)N[C@@H](Cc1ccc(O)cc1)C(N)=O)[C@@H](C)O)C(C)C)[C@@H](C)O [NN1213] | 465 | 74 |  |  |  |  |  |  |  |  | 29
